Assays:
Format in all cases: cell-based
BRAF G466V = biological target: T1, BRAF G466V (Homo sapiens, UniProt P15056, G466V); assay: BRAF HiBiT degradation assay, C-terminal HiBiT-tagged BRAF G466V overexpressed in HCT-116 BRAF−/− cells (clone 8), Nano-Glo HiBiT Lytic assay
T1 construct: Horizon Discovery (HCT-116 BRAF−/− cells); host or cells: HCT-116 BRAF−/− cells, clone 8, lentiviral transduction
Procedure, shortened: (§1)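 HCT-116 BRAF−/− cells stably expressing the tagged mutant were seeded at 3,000 cells/well and grown 24 h at 37 °C before an 11-point half-log series from 1 μM to 0.01 nM, run in duplicate at 0.2% DMSO. Lytic HiBiT luminescence gave % protein remaining versus DMSO controls; DC50 was the fitted concentration at 50%.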

BRAF G469A = biological target: T2, BRAF G469A (Homo sapiens, UniProt P15056, G469A); assay: BRAF HiBiT degradation assay, C-terminal HiBiT-tagged BRAF G469A overexpressed in HCT-116 BRAF−/− cells (clone 34), Nano-Glo HiBiT Lytic assay
T2 construct: Horizon Discovery (HCT-116 BRAF−/− cells); host or cells: HCT-116 BRAF−/− cells, clone 34, lentiviral transduction
T2 sequence (P15056 whole entry G469A): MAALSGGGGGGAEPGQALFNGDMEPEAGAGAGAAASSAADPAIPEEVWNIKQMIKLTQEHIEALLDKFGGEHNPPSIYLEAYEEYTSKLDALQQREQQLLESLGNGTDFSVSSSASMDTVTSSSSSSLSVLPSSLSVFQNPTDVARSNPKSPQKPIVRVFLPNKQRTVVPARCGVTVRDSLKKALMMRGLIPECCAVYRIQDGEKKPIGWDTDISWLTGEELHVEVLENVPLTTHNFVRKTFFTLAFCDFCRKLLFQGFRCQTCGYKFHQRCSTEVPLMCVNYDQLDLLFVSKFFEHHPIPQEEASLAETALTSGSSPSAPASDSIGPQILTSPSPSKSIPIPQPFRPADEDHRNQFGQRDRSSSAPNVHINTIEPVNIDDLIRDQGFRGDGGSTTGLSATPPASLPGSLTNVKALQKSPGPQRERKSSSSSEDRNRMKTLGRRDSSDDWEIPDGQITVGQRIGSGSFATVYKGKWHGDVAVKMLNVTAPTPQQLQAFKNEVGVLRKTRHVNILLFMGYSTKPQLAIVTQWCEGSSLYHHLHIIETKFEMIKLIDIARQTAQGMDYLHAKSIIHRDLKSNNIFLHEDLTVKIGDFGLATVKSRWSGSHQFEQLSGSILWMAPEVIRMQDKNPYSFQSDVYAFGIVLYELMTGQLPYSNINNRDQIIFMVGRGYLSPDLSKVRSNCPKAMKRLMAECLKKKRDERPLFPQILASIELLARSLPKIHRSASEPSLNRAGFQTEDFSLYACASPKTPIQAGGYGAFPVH
Procedure, shortened: as §1

BRAF V600E = biological target: T3, BRAF V600E (Homo sapiens, UniProt P15056, V600E); assay: BRAF HiBiT degradation assay, C-terminal HiBiT-tagged BRAF V600E A375 cells (clone 1F10), Nano-Glo HiBiT Lytic assay; settings: for Dmax: A-375
T3 construct: endogenous C-terminal HiBiT fusion tag on BRAF V600E allele; endogenous in cells; host or cells: A375 clone 1F10 (CRISPR-Cas9 knock-in of the HiBiT tag; parental A375 from ATCC)
T3 sequence (P15056 whole entry V600E, the tested form may be a part): as the sequence (P15056 whole entry G469A) above, with A469G, V600E counted along it
Procedure, shortened: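 A375 cells with CRISPR knock-in C-terminal HiBiT on endogenous BRAF V600E (clone 1F10) were seeded and cultured 24 h at 37 °C, then dosed with an 11-point half-log series (1 μM to 0.01 nM, duplicate, 0.2% DMSO). Lytic HiBiT luminescence gave % protein remaining; DC50 was the fitted concentration at 50%.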

BRAF D594G = biological target: T4, BRAF D594G (Homo sapiens, UniProt P15056, D594G); assay: BRAF HiBiT degradation assay, C-terminal HiBiT-tagged BRAF D594G overexpressed in HCT-116 BRAF−/− cells (clone 63), Nano-Glo HiBiT Lytic assay
T4 construct: Horizon Discovery (HCT-116 BRAF−/− cells); host or cells: HCT-116 BRAF−/− cells, clone 63, lentiviral transduction
T4 sequence (P15056 whole entry D594G): as the sequence (P15056 whole entry G469A) above, with A469G, D594G counted along it
Procedure, shortened: as §1

[1] = BRAF G466V, DC50 at 50%: fitted conc. at Y=50
[2] = HCT-116, BRAF G466V, percentage protein degraded at maximal compound effect relative to DMSO
[3] = Class 2, BRAF G469A, DC50 at 50%: fitted conc. at Y=50
[4] = HCT-116, Class 2, BRAF G469A, percentage protein degraded at maximal compound effect relative to DMSO
[5] = A375 (BRAF V600E), DC50 at 50%: fitted conc. at Y=50
[6] = A375 (BRAF V600E), percentage protein degraded at maximal compound effect relative to DMSO
[7] = BRAF D594G, DC50 at 50%: fitted conc. at Y=50
[8] = HCT-116, BRAF D594G, percentage protein degraded at maximal compound effect relative to DMSO
[9] = BRAF G466V (Class 3), HCT-116 BRAF−/− cells, DC50 at 50% degradation
[10] = BRAF G466V (Class 3), HCT-116 BRAF−/− cells, observed Dmax relative to DMSO control
[11] = BRAF G469A (Class 2), HCT-116 BRAF−/− cells, DC50 at 50% degradation
[12] = BRAF G469A (Class 2), HCT-116 BRAF−/− cells, observed Dmax relative to DMSO control
[13] = A375 (BRAF V600E, Class 1), DC50 at 50% degradation
[14] = A375 (BRAF V600E, Class 1), observed Dmax, % protein degraded relative to DMSO control
[15] = BRAF D594G (Class 3), HCT-116 BRAF−/− cells, DC50 at 50% degradation
[16] = BRAF D594G (Class 3), HCT-116 BRAF−/− cells, observed Dmax relative to DMSO control

T1 sequence (P15056 whole entry G466V): as the sequence (P15056 whole entry G469A) above, with G466V, A469G counted along it

A DC50 (BRAF G466V; [1]) of less than 10 nM, a Dmax (BRAF G466V; [2]) of 30 to 70% and a DC50 (BRAF G469A; [3]) of less than 10 nM were found for CCCS(=O)(=O)Nc1cccc(-c2nc(C(C)(C)C)sc2-c2ccnc(N[C@H]3CC[C@@H](N4CCN(C(=O)C5CCN(c6ccc(C7CCC(=O)NC7=O)cn6)CC5)CC4)CC3)n2)c1F (mixture of isomers) [Compound 138, N-{3-[2-tert-butyl-5-(2-{[(1s,4s)-4-[4-(1-{5-[(3RS)-2,6-dioxopiperidin-3-yl]pyridin-2-yl}piperidine-4-carbonyl)piperazin-1-yl]cyclohexyl]amino}pyrimidin-4-yl)-1,3-thiazol-4-yl]-2-fluorophenyl}propane-1-sulfonamide] in this work. It also gave a Dmax (BRAF G469A; [4]) of 30 to 70%, a DC50 (BRAF V600E; [5]) of less than 10 nM and a Dmax (BRAF V600E; [6]) greater than 70%. The DC50 (BRAF D594G; [7]) was 10 to 50 nM and the Dmax (BRAF D594G; [8]) was 30 to 70%.

A DC50 (BRAF G466V; [1]) of 10 to 50 nM, a Dmax (BRAF G466V; [2]) of 30 to 70% and a DC50 (BRAF G469A; [3]) of 10 to 50 nM were found for CCCS(=O)(=O)Nc1cccc(-c2nc(-c3ccc(N4CCN(CC5CCN(c6ccc(C7CCC(=O)NC7=O)cn6)CC5)CC4)cc3)sc2-c2ccnc(N)n2)c1F (racemic) [Compound 187, Rac-N-{3-[5-(2-aminopyrimidin-4-yl)-2-(4-{4-[(1-{5-[(3R)-2,6-dioxopiperidin-3-yl]pyridin-2-yl}piperidin-4-yl)methyl]piperazin-1-yl}phenyl)-1,3-thiazol-4-yl]-2-fluorophenyl}propane-1-sulfonamide] in this work. For the same compound, the Dmax (BRAF G469A; [4]) was 30 to 70%, the DC50 (BRAF V600E; [5]) was less than 10 nM and the Dmax (BRAF V600E; [6]) was greater than 70%. For the same compound, the DC50 (BRAF D594G; [7]) was less than 10 nM and the Dmax (BRAF D594G; [8]) was 30 to 70%.

A DC50 (BRAF G466V; [9]) of less than 10 nM, a Dmax (BRAF G466V; [10]) greater than 70% and a DC50 (BRAF G469A; [11]) of 50 to 500 nM were found for O=C1CCC(c2ccc(N3CCC(CN4CCN(c5ccc(-n6cc(-c7cc(Cl)cc(NS(=O)(=O)N8CCCC8)c7F)c(-c7ccncc7)n6)cc5)CC4)CC3)c(F)c2F)C(=O)N1 (racemic) [Compound 385, Rac-N-{5-chloro-3-[1-(4-{4-[(1-{4-[(3R)-2,6-dioxopiperidin-3-yl]-2,3-difluorophenyl}piperidin-4-yl)methyl]piperazin-1-yl}phenyl)-3-(pyridin-4-yl)-1H-pyrazol-4-yl]-2-fluorophenyl}pyrrolidine-1-sulfonamide] in this work. For the same compound, the Dmax (BRAF G469A; [12]) was 30 to 70%, the DC50 (BRAF V600E; [13]) was 10 to 50 nM and the Dmax (BRAF V600E; [14]) was greater than 70%. For the same compound, the DC50 (BRAF D594G; [15]) was less than 10 nM and the Dmax (BRAF D594G; [16]) was 30 to 70%.

A DC50 (BRAF G466V; [1]) of 50 to 500 nM, a Dmax (BRAF G466V; [2]) of 30 to 70% and a DC50 (BRAF G469A; [3]) greater than 500 nM were found for CCCS(=O)(=O)Nc1cccc(-c2nc(C(C)(C)C)sc2-c2ccnc(Nc3ccc(N4CCN(CC5CCN(c6ccc([C@@H]7CCC(=O)NC7=O)cc6)CC5)CC4)cc3)n2)c1F [Compound 58, N-[3-(2-tert-butyl-5-{2-[(4-{4-[(1-{4-[(3S)-2,6-dioxopiperidin-3-yl]phenyl}piperidin-4-yl)methyl]piperazin-1-yl}phenyl)amino]pyrimidin-4-yl}-1,3-thiazol-4-yl)-2-fluorophenyl]propane-1-sulfonamide] in this work. For the same compound, the Dmax (BRAF G469A; [4]) was 30 to 70%, the DC50 (BRAF V600E; [5]) was 10 to 50 nM and the Dmax (BRAF V600E; [6]) was greater than 70%. For the same compound, the DC50 (BRAF D594G; [7]) was greater than 500 nM and the Dmax (BRAF D594G; [8]) was 30 to 70%.

A DC50 (BRAF G466V; [9]) of less than 10 nM, a Dmax (BRAF G466V; [10]) of 30 to 70% and a DC50 (BRAF G469A; [11]) greater than 500 nM were found for O=C1CCN(c2ccc(N3CCC(CN4CCN(c5ccc(-n6cc(-c7cc(Cl)cc(NS(=O)(=O)N8CC[C@@H](F)C8)c7F)c(-c7ccncc7)n6)cc5F)CC4)CC3)cc2)C(=O)N1 [Compound 365, (3R)—N-[5-chloro-3-(1-{4-[4-({1-[4-(2,4-dioxo-1,3-diazinan-1-yl)phenyl]piperidin-4-yl}methyl)piperazin-1-yl]-3-fluorophenyl}-3-(pyridin-4-yl)-1H-pyrazol-4-yl)-2-fluorophenyl]-3-fluoropyrrolidine-1-sulfonamide] in this work. The Dmax (BRAF G469A; [12]) was 30 to 70%, the DC50 (BRAF V600E; [13]) was less than 10 nM and the Dmax (BRAF V600E; [14]) was greater than 70%. The DC50 (BRAF D594G; [15]) was less than 10 nM and the Dmax (BRAF D594G; [16]) was 30 to 70%.

From US20260317324A1, “BIFUNCTIONAL COMPOUNDS FOR DEGRADING BRAF VIA UBIQUITIN PROTEOSOME PATHWAY” (Nurix Therapeutics, Inc., priority 2023, published 2026)
